Several values for one entry are separate records, joined by “and”; a condition that tells them apart may be missing. Identical values can stand only once.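 Interpolation was linear, between the two tested concentrations surrounding the appropriate level; five concentrations were tested over 48 hours in 96-well plates. GI50 is the concentration that inhibits growth by half. TGI denotes the concentration required for complete inhibition of growth.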
Key:
Assay in all cases: NCI tumour cell line growth inhibition, 48 h
MDA-MB-435 = tested on: MDA-MB-435
HT29 colon = tested on: HT29 colon
MOLT-4 leukemia = tested on: MOLT-4 leukemia
HCC-2998 colon = tested on: HCC-2998 colon
ACHN renal = tested on: ACHN renal
EKVX NSCLC = tested on: EKVX NSCLC
HS 578T breast = tested on: HS 578T breast
NCI-H226 lung = tested on: NCI-H226 lung
SF-539 CNS = tested on: SF-539 CNS
CCRF-CEM leukemia = tested on: CCRF-CEM leukemia

SMILES | TGI (MDA-MB-435) | TGI (HT29 colon) | TGI (MOLT-4 leukemia) | TGI (HCC-2998 colon) | TGI (ACHN renal) | TGI (EKVX NSCLC) | TGI (HS 578T breast) | TGI (NCI-H226 lung) | TGI (SF-539 CNS) | TGI (CCRF-CEM leukemia) | GI50 (NCI-H226 lung) | GI50 (HT29 colon) | GI50 (MOLT-4 leukemia) | GI50 (ACHN renal) | GI50 (HS 578T breast) | GI50 (MDA-MB-435) | GI50 (CCRF-CEM leukemia) | GI50 (EKVX NSCLC)
CCN(CC(=O)O)C(=O)c1cccnc1 | > 100 µM | > 100 µM | > 100 µM | > 100 µM | > 100 µM | > 100 µM | > 100 µM | – | – | – | – | – | – | – | – | – | – | –
COc1cc2c(ccc3c4cc(OC)c(OC)cc4c[n+](C)c23)cc1O | – | > 75 µM | 19.2 µM | 75 µM | – | > 71.5 µM | – | 9.14 µM | 28.7 µM | 34.6 µM | – | – | – | – | – | – | – | –
CCOC(=O)C(NC(=O)c1ccco1)(Nc1nc2ccc(OCC)cc2s1)C(F)(F)F (stereo unspecified) | 80.2 µM | > 100 µM | > 100 µM | > 100 µM | 82.3 µM | > 100 µM | > 100 µM | > 100 µM | > 100 µM | > 100 µM | – | – | – | – | – | – | – | –
CCOC(=O)C1=NN(c2ccc(C)cc2)C2=CC(C)=NN(C)C(=S)N21 | > 100 µM | > 100 µM | > 100 µM | > 100 µM | > 100 µM | > 100 µM | > 100 µM | – | > 100 µM | > 100 µM | – | – | – | – | – | – | – | –
COc1ccc2c(c1)[nH]c1c(/C=C/c3ccccc3)nccc12 | 49 µM | 33.9 µM | > 100 µM | 29.9 µM | 28.4 µM | 29.6 µM | 45.3 µM | 53.1 µM | 32.3 µM | > 100 µM | – | – | – | – | – | – | – | –
CCn1c(-c2ccc(N=NNc3ccc(-c4n[nH]c(=S)n4CC)cc3)cc2)n[nH]c1=S | – | > 100 µM | 6.28 µM | – | 6.1 µM | 75.4 µM | > 100 µM | 5.86 µM | – | 61.6 µM | – | – | – | – | – | – | – | –
[N-]=[N+]=CC(=O)c1ccccc1C#CCCc1ccccc1 | – | 36.7 µM | 40.9 µM | > 100 µM | 68.8 µM | 75.5 µM | – | 98.3 µM | > 100 µM | 62.1 µM | – | – | – | – | – | – | – | –
CCCCCCCCC/C=C/C=C/C(=O)NCC(=O)NC1C(O)C(O)C(Nc2ncnc3nc[nH]c23)OC1C(O)CO (stereo unspecified) | 0.256 µM | 0.349 µM and 0.117 µM | > 100 µM | – | – | – | – | 0.1 µM and 0.373 µM | 0.103 µM | – | 0.00179 µM | 0.000103 µM | 0.372 µM | 0.0144 µM | 0.201 µM | – | – | –
NC(=O)c1c(NC(=O)c2ccccn2)sc2c1CCC(=O)C2 | > 100 µM | – | > 100 µM | – | > 100 µM | > 100 µM | > 100 µM | – | – | > 100 µM | – | – | > 100 µM | 2.62 µM | 4.22 µM | 3.22 µM | 2.02 µM | 5.01 µM
Nc1nc(SCCc2ccccc2)nc2nc3c(c(-c4ccccc4)c12)CCCC3 | > 100 µM | > 100 µM | > 100 µM | – | > 100 µM | > 100 µM | 64.7 µM | – | > 100 µM | > 100 µM | – | – | – | – | – | – | – | –
NCCSC(c1ccccc1)c1ccccc1 | 33.8 µM | 35.5 µM | 42.6 µM | – | > 100 µM | 70.1 µM | 76.5 µM | 65.6 µM | 37.2 µM | > 100 µM | – | – | – | – | – | – | – | –
C(=N\NC1=NCCN1)/c1ccc(-c2cn3cc(/C=N/NC4=NCCN4)ccc3n2)cc1 | > 79.7 µM | > 67.7 µM | > 37.4 µM | > 100 µM | > 100 µM | > 92.4 µM | > 100 µM | > 100 µM | > 100 µM | 25.1 µM | – | – | – | – | – | – | – | –
O=C(C[n+]1ccc2ccccc2c1)c1ccc2ccc3ccccc3c2c1 | 7.75 µM | 12.2 µM | 2.69 µM | 3.37 µM | 14.8 µM | 19.3 µM | 35.2 µM | 25.3 µM | 14.2 µM | 4.78 µM | – | – | – | – | – | – | – | –
CC(C)(C)c1cc(C2=NNC(c3ccccc3)C2)cc(C(C)(C)C)c1O (stereo unspecified) | 26.8 µM | 50.3 µM | > 100 µM | – | 29.8 µM | 36.6 µM | 55.6 µM | 32.8 µM | 44.7 µM | – | – | – | – | – | – | – | – | –
Clc1cc2c(cc1Cl)CC(NCCN1CCCC1)CC2 (stereo unspecified) | 14.4 µM | 18.1 µM | 60 µM | 8.02 µM | 31.8 µM | 38.7 µM | 42.4 µM | 32.1 µM | 28 µM | > 100 µM | – | – | – | – | – | – | – | –
Cc1nn(-c2ccccc2)c(C)c1/C=N/N=C1\SCC(=O)N1c1ccccc1 | 55.3 µM | 73.9 µM | > 100 µM | 52.8 µM | 34.4 µM | 47.1 µM | > 100 µM | 66.5 µM | 67.2 µM | > 100 µM | – | – | – | – | – | – | – | –
Nc1cccc(/C=C/C(=O)N2CCN(CCOC(c3ccccc3)c3ccccc3)CC2)c1 | 29.8 µM | 21.6 µM | 21.2 µM | – | 31.6 µM | 36.2 µM | 45.6 µM | 39.8 µM | 31 µM | 26.4 µM | – | – | – | – | – | – | – | –
C[C@H](CCC(=O)O)[C@H]1CC[C@@]2(C)[C@@H]3C(=O)C[C@H]4C(C)(C)[C@@H](O)CC[C@]4(C)[C@H]3C(=O)C[C@]12C | > 100 µM | > 100 µM | > 100 µM | > 100 µM | > 100 µM | > 100 µM | > 100 µM | > 100 µM | > 100 µM | > 100 µM | – | – | – | – | – | – | – | –
CCC1CN(C(=O)c2ccccc2)C(Cc2c[nH]c3ccccc23)C(=O)C1CC(=O)OC (stereo unspecified) | > 100 µM | > 100 µM | > 100 µM | – | > 100 µM | > 100 µM | > 100 µM | > 100 µM | > 100 µM | > 100 µM | – | – | – | – | – | – | – | –
CCC(C)C1=C(OC(C)=O)[N+]2([O-])Oc3ccc(-c4c(OC(C)=O)c(OC(C)=O)c(-c5ccc(OC(C)=O)cc5)c(OC(C)=O)c4OC(C)=O)cc3OC2(C(C)CC)C(=O)N1OC(C)=O (stereo unspecified) | > 50 µM | > 50 µM | 29.3 µM | – | > 50 µM | 32.7 µM | – | > 50 µM | > 50 µM | 39.3 µM | – | – | – | – | – | – | – | –

— PubChem BioAssay (NCI)
